Results published in patent US20090030039A1, “Piperidine Derivatives as Cxcr3 Receptor Antagonists” (priority 2006, published 2009).

Biological target: T1, human CXCR3 (Homo sapiens, UniProt P49682)
T1 construct: expressed in transfected cells; host or cells: CHO cells (membrane preparation)
T1 sequence (P49682 1-368): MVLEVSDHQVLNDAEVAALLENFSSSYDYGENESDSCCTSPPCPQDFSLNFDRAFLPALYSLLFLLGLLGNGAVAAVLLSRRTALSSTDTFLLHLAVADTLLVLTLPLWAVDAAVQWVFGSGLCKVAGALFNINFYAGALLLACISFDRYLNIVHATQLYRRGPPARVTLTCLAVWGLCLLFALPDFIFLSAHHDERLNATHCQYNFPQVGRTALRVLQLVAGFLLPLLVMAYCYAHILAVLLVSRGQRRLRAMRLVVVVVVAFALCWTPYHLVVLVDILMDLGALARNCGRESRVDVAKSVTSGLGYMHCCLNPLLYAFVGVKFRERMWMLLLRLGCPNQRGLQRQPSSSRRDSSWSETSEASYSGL
Test: [35S]GTPγS exchange assay, CXCR3 receptor inhibition (hI-TAC-induced GTPγS-binding)
Format: biochemical
Details: -log IC50 (molar) inhibiting 50% of specific I-TAC-induced GTPγS-binding; membranes of human CXCR3-transfected CHO cells
Protocol: CXCR3 Receptor Inhibition was Examined in a [^35S]GTPγS Exchange Assay
The exchange of guanosine 5′-[^35S]triphosphate was measured on membranes of human CXCR3-transfected CHO cells. [^35S]GTPγS exchange assays were performed in 96-well plates with 10 μg of membrane protein/well using basic flashplates (Perkin Elmer). Compounds were dissolved in DMSO and diluted with incubation buffer to yield required concentrations with 9% DMSO. Incubation buffer is composed of 20 mM HEPES, 100 mM NaCl, 3 μM GDP and 1 mM MgCl2, pH 7.4. […] Compound, membranes, hI-TAC (interferon-inducible T-cell alpha chemoattractant) and [^35S]GTPγS were added in a total volume of 200 μl. First, 20 μl of the appropriate compound dilution and 140 μl membranes from CXCR3-CHO cells were dissolved in membrane incubation buffer and pre-incubated for 30 minutes at 30° C. Then, 20 μl of hI-TAC dissolved at 30 nM in incubation buffer was added to the membranes and the mixture containing 1% of DMSO was incubated for another 30 minutes at 30° C. […] After 1 minute shaking and 30 minutes incubation at 30° C., flashplates were centrifuged for 5 minutes at 2500 rpm at room temperature. Flashplate bound radioactivity was determined by liquid scintillation counting. Basal GTPγS-binding was measured in 8 wells with membranes incubated in the same volume with 1% DMSO, without I-TAC. Maximal GTPγS-binding was measured in 8 wells with membranes incubated with 1% DMSO and 3 nM I-TAC. […] IC50 values were calculated using non-linear regression in Graphpad Prism.

pIC50	Structure (SMILES)
6.2	O=C1CCC(c2ccncc2)(C2CCN(Cc3ccc(Br)cc3)CC2)C(=O)N1 (stereo not shown) [Compound 2]
6.3	O=C1CCC(c2ccccc2)(C2CCN(Cc3ccc(Br)cc3)CC2)CN1 (stereo not shown) [Compound 5]
6.2	O=C1CCC(c2cccc(C(=O)O)c2)(C2CCN(Cc3ccc(Br)cc3)CC2)C(=O)N1 (stereo not shown) [Compound 23]
6.3	O=C1CCC(c2ccccn2)(C2CCN(Cc3ccc(Br)cc3)CC2)C(=O)N1 (stereo not shown) [Compound 30]
5.5	CNC(=O)c1cccc(C2(C3CCN(Cc4ccc(Br)cc4)CC3)CCC(=O)NC2=O)c1 (stereo not shown) [Compound 32]
6.1	O=C1CCC(c2cccc(C(=O)N3CCOCC3)c2)(C2CCN(Cc3ccc(Br)cc3)CC2)C(=O)N1 (stereo not shown) [Compound 37]
6.0	CSCN1C(=O)CCC(c2ccccc2)(C2CCN(Cc3ccc(Br)cc3)CC2)C1=O (stereo not shown) [Compound 38]
6.0	O=C1CCC(c2cccc(O)c2)(C2CCN(Cc3ccc(Br)cc3)CC2)C(=O)N1 (stereo not shown) [Compound 39]

Structure (SMILES)	pIC50
NC(=O)c1cccc(C2(C3CCN(Cc4ccc(Br)cc4)CC3)CCC(=O)NC2=O)c1 (stereo not shown) [Compound 33]	5.5

Same assay, conditions: -log IC50 (molar) inhibiting 50% of specific I-TAC-induced GTPγS-binding; membranes of human CXCR3-transfected CHO cells; read-out: pIC50 (converted)

IC50 [µM]	Structure (SMILES)
0.1	O=C1CCC(c2ccc(F)cc2F)(C2CCN(Cc3ccc(Br)cc3)CC2)C(=O)N1 (racemic) [Compound 194]
2	CC(c1ccc(Br)cc1)N1CCC(C2(c3ccccc3)CCC(=O)NC2=O)CC1 (single isomer, unassigned) [Compound 17]
0.398	CC(c1ccc(Br)cc1)N1CCC(C2(c3ccccc3)CCC(=O)NC2=O)CC1 (single isomer, unassigned) [Compound 18]
0.0631	O=C1CCC(c2ccc(F)cc2F)(C2CCN(Cc3ccc(Br)cc3)CC2)C(=O)N1 (single isomer, unassigned) [Compound 166]
0.398	CC(c1ccc(Br)cc1)N1CCC(C2(c3ccccc3)CCC(=O)NC2=O)CC1 (stereo not shown) [Compound 1]
0.794	O=C1CCC(c2cccnc2)(C2CCN(Cc3ccc(Cl)cc3)CC2)C(=O)N1 (stereo not shown) [Compound 4]
0.158	COc1ccc(S(=O)(=O)O)cc1C1(C2CCN(Cc3ccc(Br)cc3)CC2)CCC(=O)NC1=O (stereo not shown) [Compound 6]
0.794	CC(c1ccc(Br)cc1)N1CCC(C2(c3ccccc3)CCCNC2=O)CC1 (stereo not shown) [Compound 11]
0.398	O=C1CCC(c2ccc(F)cc2)(C2CCN(Cc3ccc(Br)cc3F)CC2)CN1 (stereo not shown) [Compound 15]
1.26	O=C1CCC(c2ccccc2)(C2CCN(Cc3ccc(Cl)cc3)CC2)C(=O)N1 (stereo not shown) [Compound 19]
0.794	O=C1CCC(c2ccccc2)(C2CCN(Cc3ccc(Cl)cc3)CC2)C(=O)N1 (stereo not shown) [Compound 20]
0.251	O=C1CCC(c2cccc(C(=O)O)c2)(C2CCN(Cc3ccc(Cl)c(F)c3)CC2)C(=O)N1 (stereo not shown) [Compound 22]
1	CC(=O)Nc1ccccc1C1(C2CCN(Cc3ccc(Br)cc3)CC2)CCC(=O)NC1=O (stereo not shown) [Compound 24]
0.794	O=C1CCC(c2ccccn2)(C2CCN(Cc3ccc(Cl)c(F)c3)CC2)C(=O)N1 (stereo not shown) [Compound 29]
0.2	O=C1CCC(c2ccccc2)(C2CCN(Cc3ccc(Cl)c(F)c3)CC2)C(=O)N1 (stereo not shown) [Compound 31]
1.26	CN1CCN(C(=O)c2cccc(C3(C4CCN(Cc5ccc(Br)cc5)CC4)CCC(=O)NC3=O)c2)CC1 (stereo not shown) [Compound 34]
3.16	O=C1CCC(c2ccccc2)(C2CCN(Cc3ccc(F)cc3)CC2)C(=O)N1 (stereo not shown) [Compound 43]
5.01	O=C1CCC(c2ccccc2)(C2CCN(Cc3ccc(F)cc3)CC2)C(=O)N1 (stereo not shown) [Compound 44]
3.98	O=C1CCC(c2ccccc2)(C2CCN(Cc3ccc(F)cc3)CC2)C(=O)N1 (stereo not shown) [Compound 45]
2.51	O=C1CCC(c2cccc(Cl)c2)(C2CCN(Cc3ccc(F)c(F)c3F)CC2)C(=O)N1 (stereo not shown) [Compound 51]
1.26	O=C1CCC(c2ccc(F)cc2)(C2CCN(Cc3ccc(F)c(F)c3F)CC2)C(=O)N1 (stereo not shown) [Compound 54]
5.01	O=C1CCC(c2ccc(F)cc2)(C2CCN(Cc3ccc(F)c(Cl)c3)CC2)C(=O)N1 (stereo not shown) [Compound 56]
3.98	O=C1CCC(c2ccccc2)(C2CCN(Cc3ccc(F)c(Br)c3)CC2)C(=O)N1 (stereo not shown) [Compound 57]
7.94	O=C1CCC(c2ccc(F)cc2)(C2CCN(Cc3ccc(F)c(Br)c3)CC2)C(=O)N1 (stereo not shown) [Compound 58]
3.16	COc1cc(CN2CCC(C3(c4ccccc4)CCC(=O)NC3=O)CC2)ccc1F (stereo not shown) [Compound 60]
1	O=C1CCC(c2ccccc2)(C2CCN(Cc3ccc(Cl)cc3)CC2)C(=O)N1 (stereo not shown) [Compound 61]
0.794	O=C1CCC(c2ccccc2)(C2CCN(Cc3ccc(Cl)cc3)CC2)C(=O)N1 (stereo not shown) [Compound 62]
2	O=C1CCC(c2cccc(Cl)c2)(C2CCN(Cc3ccc(Cl)cc3)CC2)C(=O)N1 (stereo not shown) [Compound 63]
0.794	O=C1CCC(c2cccc(C(=O)O)c2)(C2CCN(Cc3ccc(Cl)cc3)CC2)C(=O)N1 (stereo not shown) [Compound 66]
0.794	O=C1CCC(c2ccc(F)cc2)(C2CCN(Cc3ccc(Cl)cc3)CC2)C(=O)N1 (stereo not shown) [Compound 68]

Structure (SMILES)	IC50 [µM]
O=C1CCC(c2ccc(F)cc2F)(C2CCN(Cc3ccc(Cl)c(F)c3)CC2)C(=O)N1 (racemic) [Compound 202]	0.251
O=C1CCC(c2ccccc2)(C2CCN(Cc3ccc(Br)cc3)CC2)C(=O)N1 (single isomer, unassigned) [Compound 14]	0.631
CC(c1ccc(Br)cc1)N1CCC(C2(c3ccc(F)cc3)CCC(=O)NC2=O)CC1 (stereo not shown) [Compound 3]	0.2
O=C1CCC(c2ccccc2)(N2CCN(Cc3ccc(Br)cc3)CC2)C(=O)N1 (stereo not shown) [Compound 7]	0.251
O=C1CCC(c2ccccc2)(C2CCN(Cc3ccc(Br)c(F)c3)CC2)C(=O)N1 (stereo not shown) [Compound 16a]	0.316
O=C1CCC(c2ccc(F)cc2)(C2CCN(Cc3ccc(Cl)c(F)c3)CC2)C(=O)N1 (stereo not shown) [Compound 26]	0.2
O=C1CCC(c2ccccc2)(N2CCN(Cc3ccc(Cl)c(F)c3)CC2)C(=O)N1 (stereo not shown) [Compound 27]	2.51
O=C1CCC(c2ccccc2)(C2CCN(Cc3ccc4ccccc4c3)CC2)C(=O)N1 (stereo not shown) [Compound 28]	3.98
COC(=O)c1ccc(CN2CCC(C3(c4ccccc4)CCC(=O)NC3=O)CC2)cc1 (stereo not shown) [Compound 36]	1.26
COc1cc(F)ccc1CN1CCC(C2(c3ccccc3)CCC(=O)NC2=O)CC1 (stereo not shown) [Compound 46]	3.98
O=C1CCC(c2ccccc2)(C2CCN(Cc3ccc(F)c(F)c3)CC2)C(=O)N1 (stereo not shown) [Compound 47]	2
O=C1CCC(c2ccc(F)cc2)(C2CCN(Cc3ccc(F)c(F)c3)CC2)C(=O)N1 (stereo not shown) [Compound 49]	3.98
O=C1CCC(c2ccccc2)(C2CCN(Cc3ccc(F)c(F)c3F)CC2)C(=O)N1 (stereo not shown) [Compound 50]	1.58
Cc1cccc(C2(C3CCN(Cc4ccc(F)c(F)c4F)CC3)CCC(=O)NC2=O)c1 (stereo not shown) [Compound 52]	1.26
COc1cccc(C2(C3CCN(Cc4ccc(F)c(F)c4F)CC3)CCC(=O)NC2=O)c1 (stereo not shown) [Compound 53]	2
O=C1CCC(c2ccccc2)(C2CCN(Cc3ccc(F)c(Cl)c3)CC2)C(=O)N1 (stereo not shown) [Compound 55]	3.16
Cc1cc(CN2CCC(C3(c4ccccc4)CCC(=O)NC3=O)CC2)ccc1F (stereo not shown) [Compound 59]	1.26
Cc1cccc(C2(C3CCN(Cc4ccc(Cl)cc4)CC3)CCC(=O)NC2=O)c1 (stereo not shown) [Compound 64]	2
COc1cccc(C2(C3CCN(Cc4ccc(Cl)cc4)CC3)CCC(=O)NC2=O)c1 (stereo not shown) [Compound 67]	1

Same assay, conditions: pIC50, -log IC50 (molar) inhibiting 50% of specific I-TAC-induced GTPγS-binding; membranes of human CXCR3-transfected CHO cells

Structure (SMILES)	IC50 [µM]
O=C1CCC(c2ccccc2)(C2CCN(Cc3ccc(Br)cc3)CC2)C(=O)N1 (single isomer, unassigned) [Compound 13]	0.316
COc1cccc(C2(C3CCN(Cc4ccc(Br)cc4)CC3)CCC(=O)NC2=O)c1 (stereo not shown) [Compound 8]	1.58
O=C1CCC(c2ccccc2)(C2CCN(Cc3ccc(Br)cc3)CC2)C(=O)N1 (stereo not shown) [Compound 10]	0.316
Nc1cccc(C2(C3CCN(Cc4ccc(Br)cc4)CC3)CCC(=O)NC2=O)c1 (stereo not shown) [Compound 35]	0.316
O=C1CCC(c2cccc(C(F)(F)F)c2)(C2CCN(Cc3ccc(Cl)cc3)CC2)C(=O)N1 (stereo not shown) [Compound 65]	2.51

Same assay, conditions: read-out: pIC50 (converted)

IC50 [µM]	Structure (SMILES)
2	Cc1cccc(C2(C3CCN(Cc4ccc(Br)cc4)CC3)CCC(=O)NC2=O)c1 (stereo not shown) [Compound 9]
